Measurements as given in US20040009964A1, “Compositions and methods for the treatment of matrix metalloproteinase-related diseases” (BioInterface Technologies, Inc., priority 2002, published 2004).
“Also recorded” adds a separate entry of the source.

Key:
[1] = target: human neutrophil collagenase (Homo sapiens, UniProt P22894); settings: cited from earlier work; for Effect of metal ion binding on collagenase activity: binding to human neutrophil collagenase
matrix metalloproteinase = settings: synoviocyte MMP activity; cited from earlier work
S. aureus (ATCC 25923) = settings: overnight at 37° C., dilutions 1.95 to 250 μg/ml
Protocol: (§1) In vitro antimicrobial activity was calculated by determining the minimum inhibitory concentration (MIC) for a silver thiosulfate ion complex composition; for example, the silver thiosulfate ion complex produced according to Example 3. The antimicrobial activity of this embodiment was determined by using serial two-fold dilutions ranging from 1.95 to 250 μg/ml using tryptic soy broth (Difco) as a diluent. Each dilution was inoculated with a 0.005 ml aliquot from a 24-hour microbial growth culture having a concentration of approximately 10^5 to 10^7 CFU/ml. The dilutions were incubated overnight at 37° C. The MIC was determined by identifying the lowest dilution (expressed as μg/ml) of the silver thiosulfate ion complex that was without evidence of growth (i.e. was not cloudy).

[2] = tested on: P. aeruginosa (ATCC 27853); settings: overnight at 37° C., dilutions 1.95 to 250 μg/ml
Protocol: as §1

E. coli (ATCC 25922) = settings: overnight at 37° C., dilutions 1.95 to 250 μg/ml
Protocol: as §1

[3] = tested on: S. epidermidis (ATCC 12228); settings: overnight at 37° C., dilutions 1.95 to 250 μg/ml
Protocol: as §1

Sequence of human neutrophil collagenase (P22894 101-467): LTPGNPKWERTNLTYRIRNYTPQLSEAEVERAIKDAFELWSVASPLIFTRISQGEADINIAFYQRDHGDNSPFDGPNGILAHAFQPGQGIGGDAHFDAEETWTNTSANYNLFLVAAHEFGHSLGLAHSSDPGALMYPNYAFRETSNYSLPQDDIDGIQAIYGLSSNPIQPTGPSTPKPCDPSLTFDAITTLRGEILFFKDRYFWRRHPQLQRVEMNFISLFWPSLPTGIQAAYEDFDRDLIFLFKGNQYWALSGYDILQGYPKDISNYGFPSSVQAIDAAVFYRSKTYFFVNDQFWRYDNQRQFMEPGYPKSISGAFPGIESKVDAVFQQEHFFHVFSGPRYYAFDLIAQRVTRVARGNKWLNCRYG

Molecule: [Ag+] [Ag(I)]
- Direct inhibition of matrix metalloproteinase ([1]; Ag(I) concentrations up to 10 μM, higher concentrations precipitated in the culture media): did not directly inhibit

Molecule: [Au+] [Au(I)]
- Effect of metal ion binding on collagenase activity [1]: noncompetitive inhibition; also recorded: collagenase inhibition

Molecule: [Cd+2] [Cd(II)]
- Effect of metal ion binding on collagenase activity [1]: noncompetitive inhibition; also recorded: collagenase inhibition

Molecule: [Cu+2] [Cu(II)]
- Effect of metal ion binding on collagenase activity [1]: noncompetitive inhibition; also recorded: collagenase inhibition

Molecule: [Hg+2] [Hg(II)]
- Effect of metal ion binding on collagenase activity [1]: collagenase inhibition

Molecule: [Zn+2] [Zn(II)]
- Effect of metal ion binding on collagenase activity [1]: retention of activity

Molecule: O=[N+]([O-])[O-].O=[N+]([O-])[O-].O=[N+]([O-])[O-].[Ga+3] [gallium nitrate]
- Inhibition of matrix metalloproteinase activity (matrix metalloproteinase): can inhibit matrix metalloproteinase activity

Molecule: Na4[Ag2(S2O3)3]H2O [Silver Thiosulfate Ion Complexes]
- MIC (S. aureus (ATCC 25923)): <1.95 µg/mL
- MIC [2]: <1.95 µg/mL
- MIC (E. coli (ATCC 25922)): <1.95 µg/mL
- MIC [3]: <1.95 µg/mL
